Test results published in US20080051646A1, “Probe for cellular oxygen” (priority 2006, published 2008).
Where no end group is shown, it is not given here. PtCP = not defined here

Tests used:
Type in all cases: cell-based
A549 cells = assay: Intracellular oxygen imaging of loaded cells treated with effector compounds
Procedure: (§1) Loading of the cells with the PtCPK-BSA and PdCPK-BSA based probes (as described in Example 2) was carried out in the same way as described in Example 3 for the PtCP-BSA probes (i.e. 5 h in serum-free medium for the Escort or 24 h in serum-rich medium for Endoporter). A549 and HeLa cells loaded with PtCPK-BSA and PdCPK-BSA probes were then washed and analyzed by fluorescence microscopy. Imaging experiments of cells loaded with the probes were carried out on an Olympus IX51 inverted fluorescence microscope equipped with 75 W Xenon Arc Lamp (Cairn), an Optoscan Monochromator (Cairn) and an Orca-ER CCD camera (Hamamatsu). Live cell imaging was carried out using an Olympus UplanFl 1.3 NA 100× oil-immersion objective. The images were analysed using Kinetic Imaging AQM Advanced software (Version 6). The PtCPK and PdCPK probes were imaged under excitation at wavelengths of 395 nm and 400 nm respectively collecting the phosphorescence emission using a 600 nm cut-off filter.
(§2) Adherent A549, HeLa and SH-SY5Y cells were grown under normal conditions. Cells were loaded with probes based on PtCPK-BSA and PdCPK-BSA and Escort III (described in Example 2), and treated with various effector compounds with known mechanisms of action on cell metabolism and cellular response to the effector compounds was observed under a fluorescent microscope.
The effect of Ca-channel agonist ryanodine (20 nM) on SH-SY5Y cells, with up-regulation of cell metabolism by inducing a release of Ca2+ from intracellular stores, is shown in FIG. 4. […] An approximately 40% drop in PtCPK phosphorescence was observed as the base rate of respiration was inhibited resulting in higher levels of intracellular oxygen emanating from O2 influx from the extracellular medium.
The specificity of the CMC response was confirmed by incubating A549 cells with an equimolar concentration of the ryanodine channel blocker procaine followed by CMC treatment. In this case, phosphorescence intensity increased by less than 10% after the introduction of CMC.

Jurkat T cells = assay: Lifetime of cell-surface-bound WGA-PtCP probe on Victor2 time resolved reader; conditions: Jurkat cells loaded with WGA-PtCP probe; 1 μM; basal 25 μs
Procedure: Wheat germ agglutinin (WGA) at 1 mg/ml concentration in 0.1 M Na carbonate, pH 8.6 was labelled with the PtCP-NCS dye using a 20-molar excess of dye. After two hours of incubation at room temperature, the resulting conjugate was separated from the free dye as described in example 1 above. Jurkat T cells and human B cells were incubated with WGA-PtCP probe at 1 μM concentration for 30 min at 37° C. in RPMI medium, to achieve binding of the probe to glycoproteins on cell surface. After washing of loaded cells with medium, local oxygen concentration (at cell surface and within the cell) was assessed. and responses to effectors of respiration such as 1 μM FCCP were measured. Lifetimes of the cells loaded with WGA-PtCP probe was measured on a time resolved fluorescent reader Victor^2, using excitation at 340 nm excitation and 642 nm emission filters, and pairwise intensity readings at delay times 30 and 70 μs (at gate time 100 μs). Basal lifetime of resting Jurkat cells was recorded as 25 μs, moving to 32 μs upon the addition of FCCP (uncoupler of respiration). Under the same conditions, using the PtCP-BSA conjugate which had no ability to bind to the cells and remained in extracellular medium, intracellular oxygen gradients and responses to effectors were undetectable.

Jurkat T-cells = assay: Phosphorescence lifetime of PtCP-BSA probe in Jurkat cells on a fluorescent lifetime spectrometer; conditions: for change in intracellular probe phosphorescence lifetime after effector: Jurkat cells loaded with PtCP-BSA-Escort III probe, 1 μM, three minute intervals
Procedure: Jurkat T-cells were grown in RPMI medium supplemented with 10% FBS, 2 mM L-glutamine, 100 U/ml penicillin and 100 μg/ml streptomycin.
For loading, the PtCP-BSA based probe comprising PtCP-BSA conjugate formulated with Escort III (described in Example 1) was used. Probe solution was pre-warmed by incubating at 37° C for 15 min followed by addition of 100 μl of the probe solution to the cell culture dish containing 800 μl of serum free medium. The cells and probe solution were incubated for 5 hours in a 5% CO2 incubator at 37° C., cells were then washed with 1 ml of serum free medium three times.
Loading of the cells loaded with the PtCP-based probe(s) was initially assessed by measurement on a fluorescent lifetime spectrometer Cary Eclipse (Varian), both in the intracellular environment (i.e. after loading and washing of the cells) and in the extracellular medium (at the start of loading, no washing). […] The inhibitor blocks oxygen consumption and adjusts intracellular oxygen levels to air-saturated levels.
Jurkat T-cell lymphoma cells were grown under normal conditions and loaded with the PtCP-BSA-Escort III based probe (as described in Example 1) using the method described in Example 3. Following washing the basal level of intracellular oxygen was assessed by measuring the phosphorescence lifetime of the PtCP probe using a Cary Eclipse spectrofluorometer and analyzing phosphorescence decays using Origin™ software (single-exponential fits). Phosphorescence lifetimes of the intracellular probe in loaded cells were measured at three minute intervals following the addition of 1 μM valinomycin.

HeLa cells = assay: Intracellular oxygen imaging of loaded cells treated with valinomycin; conditions: HeLa cells loaded with PtCPK-BSA or PdCPK-BSA; 1 μM
Procedure: as §1
as §2, with “microscope. […]” for “microscope.”

PC12 cells = assay: Mitochondria-targeted probes in loaded cells on the Victor reader
Procedure: The PtCP-BSA conjugate, synthesized as described in Example 1 was additionally labelled with a synthetic oligopeptide containing the following sequence: […]. The peptide comprises a mitochondria targeting sequence (according to http://psort.ims.u-tokyo.ac.jp), a terminal cysteine group was used for the conjugation. Labelling with the peptide was achieved by means of a heterobifunctional reagent—succinimide ester of maleimidopropionic acid. The PtCP-BSA conjugate was incubated with 10-molar excess of the reagent in 0.1 M phosphate buffer, pH 7.8 for 4 hours at room temperature, then separated on a PD-10 column in the same buffer. The peak of activated PtCP-BSA was collected, mixed with 10-molar excess of the peptide, incubated for further 6 hours. Finally, the PtCP-BSA-peptide conjugate was separated on a PD-10 column.
Alternatively, the peptide was conjugated directly to PtCP. The monofunctional maleimide derivative of PtCP was used, which reacts spontaneously with —SH groups on the peptide (terminal cysteins) to form stable covalent linkage. […]
Probes incorporating the PtCP-BSA-peptide and PtCP-peptide conjugates (successful labelling was confirmed by MALDI mass spectrometry) were formulated with Endoporter agent and used for cell loading as described in Examples 3 to 8. PC12 cells loaded with these probes produced high signals on the Victor reader.

Cc1cc(O)ccc1Cl [CMC, 4-chloro-meta-cresol]
increase of phosphorescence intensity (A549 cells; A549 cells pre-incubated with equimolar procaine, then 500 μM CMC): less than 10% | effect on the phosphorescence (A549 cells; respiring A549 cells loaded with PtCPK-BSA, 500 μM): pronounced effect

N#CC(C#N)=NNc1ccc(OC(F)(F)F)cc1 [FCCP]
lifetime upon addition of uncoupler (Jurkat T cells): 32 μs

CC(C)[C@@H]1NC(=O)[C@H](C)OC(=O)[C@@H](C(C)C)NC(=O)[C@@H](C(C)C)OC(=O)[C@H](C(C)C)NC(=O)[C@H](C)OC(=O)[C@@H](C(C)C)NC(=O)[C@@H](C(C)C)OC(=O)[C@H](C(C)C)NC(=O)[C@H](C)OC(=O)[C@@H](C(C)C)NC(=O)[C@@H](C(C)C)OC1=O [valinomycin]
change in intracellular probe phosphorescence lifetime after effector (Jurkat T-cells): increase in probe lifetime was significantly faster than in a control sample | phosphorescence response to effector (A549 cells; A549 cells loaded with PtCPK-BSA or PdCPK-BSA, 1 μM): rapid and cell specific | phosphorescence response to effector (HeLa cells): rapid and cell specific

PtCP-peptide: PtCP-maleimide conjugated directly to peptide VLTPLLLRGLTGSARRLPVPRAKAC (VLTPLLLRGLTGSARRLPVPRAKAC(PtCP); reading uncertain)
signals of loaded cells on the Victor reader (PC12 cells; formulated with Endoporter): high signals | phosphorescence lifetimes of resting loaded cells compared with PtCP-BSA probe (PC12 cells; resting): higher

antimycin A
probe lifetime after addition of inhibitor (Jurkat T-cells; Jurkat cells loaded with PtCP-BSA probe, basal 31 μs, lifetime decreases and levels off): ~25 μs | change in intracellular probe phosphorescence lifetime after effector (Jurkat T-cells): slight drop | drop in PtCPK phosphorescence (A549 cells; A549 cells loaded with PtCPK-BSA/Escort III, 2 μM): approximately 40%

ryanodine
response of loaded cells, lower concentrations (A549 cells; A549 cells loaded with PtCPK, 2 nM and 20 nM): increased phosphorescence | response of loaded cells, higher concentrations (A549 cells; A549 cells loaded with PtCPK, 200 nM and 2 μM): little oxygen uptake
